{"source": "patent US12343326B2", "about": "“Psychoactive medicines and their use for treating psychiatric and neurological conditions and disorders” (Transcend Therapeutics, Inc., priority 2021, dated 2025)", "assay_in_all_cases": "β-arrestin based GPCR screen (PathHunter / GPCRmax), antagonist mode", "key": {"[1]": {"target": "168 GPCRs (Homo sapiens, UniProt P51684)", "settings": "CCR6, Antagonist"}, "[2]": {"target": "168 GPCRs (Homo sapiens, UniProt Q99500)"}, "[3]": {"target": "168 GPCRs (Homo sapiens, UniProt Q96G91)", "sequence (Q96G91 whole entry)": "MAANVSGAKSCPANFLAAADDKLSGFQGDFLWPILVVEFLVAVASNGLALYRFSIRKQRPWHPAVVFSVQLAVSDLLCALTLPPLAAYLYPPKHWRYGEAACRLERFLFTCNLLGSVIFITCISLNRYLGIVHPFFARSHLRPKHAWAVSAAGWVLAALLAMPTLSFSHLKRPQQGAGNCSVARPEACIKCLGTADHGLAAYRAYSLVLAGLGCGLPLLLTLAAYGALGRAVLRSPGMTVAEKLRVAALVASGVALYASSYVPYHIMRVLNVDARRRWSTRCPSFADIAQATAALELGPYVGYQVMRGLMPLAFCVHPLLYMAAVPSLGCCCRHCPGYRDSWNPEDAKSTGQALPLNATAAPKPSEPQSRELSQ"}, "[4]": {"target": "168 GPCRs (Homo sapiens, UniProt P47872)", "settings": "SCTR"}, "[5]": {"target": "168 GPCRs (Homo sapiens, UniProt O14842)", "sequence (O14842 whole entry)": "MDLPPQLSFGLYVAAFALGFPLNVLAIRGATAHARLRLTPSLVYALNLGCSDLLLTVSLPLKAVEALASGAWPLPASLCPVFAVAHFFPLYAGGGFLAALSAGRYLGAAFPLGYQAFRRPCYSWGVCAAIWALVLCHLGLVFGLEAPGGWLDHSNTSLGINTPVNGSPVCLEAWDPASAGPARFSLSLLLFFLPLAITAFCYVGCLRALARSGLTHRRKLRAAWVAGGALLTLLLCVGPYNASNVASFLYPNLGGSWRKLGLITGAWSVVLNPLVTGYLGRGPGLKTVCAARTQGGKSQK"}, "[6]": {"target": "168 GPCRs (Homo sapiens, UniProt Q9UBY5)", "sequence (Q9UBY5 whole entry)": "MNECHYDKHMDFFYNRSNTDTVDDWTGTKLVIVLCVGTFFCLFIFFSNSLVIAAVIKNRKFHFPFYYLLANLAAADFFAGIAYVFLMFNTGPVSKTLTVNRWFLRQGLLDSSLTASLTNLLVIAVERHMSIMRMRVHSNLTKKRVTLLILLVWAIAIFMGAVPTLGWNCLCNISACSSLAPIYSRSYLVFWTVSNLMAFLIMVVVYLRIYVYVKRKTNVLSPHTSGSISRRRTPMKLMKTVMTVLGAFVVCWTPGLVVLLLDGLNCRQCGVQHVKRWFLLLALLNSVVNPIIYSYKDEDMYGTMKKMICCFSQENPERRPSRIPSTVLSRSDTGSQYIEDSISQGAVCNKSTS"}, "[7]": {"target": "168 GPCRs (Homo sapiens, UniProt P21728)"}, "[8]": {"target": "168 GPCRs (Homo sapiens, UniProt P08588)", "settings": "ADRB1, Antagonist"}, "[9]": {"target": "168 GPCRs (Homo sapiens, UniProt Q8TDS5)", "sequence (Q8TDS5 whole entry)": "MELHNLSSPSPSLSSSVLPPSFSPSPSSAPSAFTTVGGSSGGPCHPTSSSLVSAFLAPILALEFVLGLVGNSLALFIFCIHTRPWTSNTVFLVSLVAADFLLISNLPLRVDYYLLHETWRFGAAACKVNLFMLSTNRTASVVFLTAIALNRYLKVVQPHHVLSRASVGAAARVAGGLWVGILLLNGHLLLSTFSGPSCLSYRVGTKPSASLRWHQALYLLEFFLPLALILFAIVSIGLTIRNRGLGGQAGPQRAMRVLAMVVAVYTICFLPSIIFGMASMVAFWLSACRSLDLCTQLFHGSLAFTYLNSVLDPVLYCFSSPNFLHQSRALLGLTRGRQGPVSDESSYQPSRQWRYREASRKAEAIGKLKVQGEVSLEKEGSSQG"}, "[10]": {"target": "168 GPCRs (Homo sapiens, UniProt P32745)", "sequence (P32745 whole entry)": "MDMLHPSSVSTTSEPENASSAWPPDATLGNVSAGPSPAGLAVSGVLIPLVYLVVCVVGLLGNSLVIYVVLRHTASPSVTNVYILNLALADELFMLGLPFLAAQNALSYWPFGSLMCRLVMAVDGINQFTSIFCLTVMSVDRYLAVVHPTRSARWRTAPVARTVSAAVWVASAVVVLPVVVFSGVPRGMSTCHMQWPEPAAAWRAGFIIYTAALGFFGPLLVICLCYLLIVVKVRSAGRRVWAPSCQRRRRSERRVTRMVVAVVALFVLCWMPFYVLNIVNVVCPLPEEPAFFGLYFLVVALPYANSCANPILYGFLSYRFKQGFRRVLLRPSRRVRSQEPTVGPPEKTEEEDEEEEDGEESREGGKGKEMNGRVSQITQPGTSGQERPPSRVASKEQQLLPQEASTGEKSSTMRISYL"}, "[11]": {"target": "168 GPCRs (Homo sapiens, UniProt Q16581)", "settings": "C3AR1, Antagonist"}, "[12]": {"target": "168 GPCRs (Homo sapiens, UniProt P47900)", "sequence (P47900 whole entry)": "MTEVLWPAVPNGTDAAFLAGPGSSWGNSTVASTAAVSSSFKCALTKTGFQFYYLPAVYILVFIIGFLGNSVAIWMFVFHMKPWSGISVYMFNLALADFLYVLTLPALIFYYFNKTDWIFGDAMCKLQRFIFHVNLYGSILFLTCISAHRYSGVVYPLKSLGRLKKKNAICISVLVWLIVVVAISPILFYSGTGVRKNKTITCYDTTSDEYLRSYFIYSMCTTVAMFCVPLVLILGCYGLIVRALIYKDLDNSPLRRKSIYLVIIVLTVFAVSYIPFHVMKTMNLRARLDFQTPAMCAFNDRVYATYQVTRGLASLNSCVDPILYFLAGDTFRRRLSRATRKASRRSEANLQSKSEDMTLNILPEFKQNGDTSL"}, "[13]": {"target": "168 GPCRs (Homo sapiens, UniProt Q92847)", "sequence (Q92847 whole entry)": "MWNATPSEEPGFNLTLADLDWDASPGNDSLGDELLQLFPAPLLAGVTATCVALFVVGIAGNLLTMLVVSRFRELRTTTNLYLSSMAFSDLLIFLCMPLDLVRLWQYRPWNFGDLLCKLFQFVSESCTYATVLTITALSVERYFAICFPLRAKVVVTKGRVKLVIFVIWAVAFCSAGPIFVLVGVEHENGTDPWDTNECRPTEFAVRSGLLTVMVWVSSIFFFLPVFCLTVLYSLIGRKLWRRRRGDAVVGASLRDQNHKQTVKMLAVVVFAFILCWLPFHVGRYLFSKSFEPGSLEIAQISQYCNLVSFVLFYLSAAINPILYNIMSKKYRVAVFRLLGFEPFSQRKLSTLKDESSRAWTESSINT", "settings": "GHSR"}, "[14]": {"target": "168 GPCRs (Homo sapiens, UniProt P35372)", "sequence (P35372 whole entry)": "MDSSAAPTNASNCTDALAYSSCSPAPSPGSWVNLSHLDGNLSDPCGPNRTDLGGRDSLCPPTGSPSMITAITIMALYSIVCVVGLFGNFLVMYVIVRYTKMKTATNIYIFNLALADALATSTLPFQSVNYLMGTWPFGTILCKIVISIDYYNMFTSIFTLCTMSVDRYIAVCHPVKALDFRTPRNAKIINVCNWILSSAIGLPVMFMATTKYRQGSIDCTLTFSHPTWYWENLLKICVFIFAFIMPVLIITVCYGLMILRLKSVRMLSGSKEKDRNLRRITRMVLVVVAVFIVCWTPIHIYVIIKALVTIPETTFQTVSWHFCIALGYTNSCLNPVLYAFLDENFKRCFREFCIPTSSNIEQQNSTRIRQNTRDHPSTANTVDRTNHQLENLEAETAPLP"}, "[15]": {"target": "168 GPCRs (Homo sapiens, UniProt Q03431)", "sequence (Q03431 27-593)": "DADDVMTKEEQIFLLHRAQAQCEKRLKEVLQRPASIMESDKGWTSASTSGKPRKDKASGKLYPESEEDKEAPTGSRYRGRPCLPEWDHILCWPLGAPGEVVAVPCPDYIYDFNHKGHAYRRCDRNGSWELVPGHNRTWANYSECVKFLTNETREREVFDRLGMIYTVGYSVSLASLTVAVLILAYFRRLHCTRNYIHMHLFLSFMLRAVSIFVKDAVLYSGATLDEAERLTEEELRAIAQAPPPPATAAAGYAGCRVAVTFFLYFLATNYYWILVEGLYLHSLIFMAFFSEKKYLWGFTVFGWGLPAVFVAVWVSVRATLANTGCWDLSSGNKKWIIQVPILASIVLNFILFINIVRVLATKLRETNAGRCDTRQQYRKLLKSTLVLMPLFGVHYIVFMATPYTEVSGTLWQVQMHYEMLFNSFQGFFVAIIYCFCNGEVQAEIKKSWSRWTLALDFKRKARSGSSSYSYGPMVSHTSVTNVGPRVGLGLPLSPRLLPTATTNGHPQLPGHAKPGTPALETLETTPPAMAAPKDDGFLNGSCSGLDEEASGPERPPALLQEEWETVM"}, "[16]": {"target": "168 GPCRs (Homo sapiens, UniProt P41586)", "settings": "ADCYAP1R1, Antagonist"}, "[17]": {"target": "168 GPCRs (Homo sapiens, UniProt Q13324)", "sequence (Q13324 whole entry)": "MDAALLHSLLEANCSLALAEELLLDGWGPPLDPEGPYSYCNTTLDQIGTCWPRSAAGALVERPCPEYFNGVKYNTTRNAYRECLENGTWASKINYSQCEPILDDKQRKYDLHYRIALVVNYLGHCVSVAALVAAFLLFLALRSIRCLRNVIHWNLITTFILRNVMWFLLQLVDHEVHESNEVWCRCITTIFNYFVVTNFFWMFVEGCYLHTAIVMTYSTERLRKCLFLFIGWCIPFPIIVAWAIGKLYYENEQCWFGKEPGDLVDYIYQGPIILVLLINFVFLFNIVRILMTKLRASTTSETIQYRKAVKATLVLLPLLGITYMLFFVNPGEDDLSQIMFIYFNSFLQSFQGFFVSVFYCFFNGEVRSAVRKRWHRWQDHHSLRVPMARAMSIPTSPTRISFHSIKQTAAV"}, "[18]": {"target": "168 GPCRs (Homo sapiens, UniProt Q8TCW9)"}, "[19]": {"target": "168 GPCRs (Homo sapiens, UniProt P30989)"}, "[20]": {"target": "168 GPCRs (Homo sapiens, UniProt P07550)", "settings": "ADRB2, Antagonist"}, "[21]": {"target": "168 GPCRs (Homo sapiens, UniProt Q969V1)", "sequence (Q969V1 whole entry)": "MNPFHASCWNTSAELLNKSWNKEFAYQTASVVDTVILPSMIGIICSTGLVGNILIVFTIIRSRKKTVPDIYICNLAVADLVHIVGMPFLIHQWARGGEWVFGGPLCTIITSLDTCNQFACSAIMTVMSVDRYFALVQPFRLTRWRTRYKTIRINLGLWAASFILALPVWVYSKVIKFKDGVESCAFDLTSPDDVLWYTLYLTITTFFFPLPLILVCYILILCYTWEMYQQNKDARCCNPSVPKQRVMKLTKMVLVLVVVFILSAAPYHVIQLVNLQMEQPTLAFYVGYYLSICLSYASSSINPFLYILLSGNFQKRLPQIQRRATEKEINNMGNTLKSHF"}, "[22]": {"target": "168 GPCRs (Homo sapiens, UniProt P25105)", "settings": "PTAFR"}, "[23]": {"target": "168 GPCRs (Homo sapiens, UniProt Q8NFJ6)", "sequence (Q8NFJ6 whole entry)": "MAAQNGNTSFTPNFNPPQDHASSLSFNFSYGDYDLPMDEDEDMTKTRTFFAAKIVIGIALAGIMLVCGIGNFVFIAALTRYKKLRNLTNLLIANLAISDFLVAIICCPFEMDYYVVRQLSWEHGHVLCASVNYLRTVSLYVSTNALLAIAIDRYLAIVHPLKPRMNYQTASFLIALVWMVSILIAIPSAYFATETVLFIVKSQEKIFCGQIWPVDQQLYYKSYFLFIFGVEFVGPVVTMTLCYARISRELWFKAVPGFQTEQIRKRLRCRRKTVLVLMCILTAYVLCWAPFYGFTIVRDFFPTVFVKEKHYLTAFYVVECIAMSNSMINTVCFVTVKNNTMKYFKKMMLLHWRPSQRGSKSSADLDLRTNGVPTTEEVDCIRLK"}}, "data": [{"molecule": "CNC(C)C(=O)c1ccc2c(c1)OCO2", "note": "(stereo not shown) [methylone, 3,4-methylenedioxy-N-methylcathinone]", "values": [{"measurement": "activity at 1 µM", "setting": "[1]; 1 uM", "result": 9.3, "unit": "%"}, {"measurement": "activity at 10 µM", "setting": "[1]; 10 uM", "result": -1.6, "unit": "%"}, {"measurement": "activity at 10 µM", "setting": "[2]; EDG3, Antagonist mode, 10 uM", "result": 13.6, "unit": "%"}, {"measurement": "activity at 1 µM", "setting": "[2]; EDG3, Antagonist, 1 uM", "result": 25.8, "unit": "%"}, {"measurement": "activity at 10 µM", "setting": "[3]; P2RY11, Antagonist mode, 10 uM", "result": 6.6, "unit": "%"}, {"measurement": "activity at 1 µM", "setting": "[3]; P2RY11, Antagonist, 1 uM", "result": 2.7, "unit": "%"}, {"measurement": "activity at 10 µM", "setting": "[4]; Antagonist mode, 10 uM", "result": 2.5, "unit": "%"}, {"measurement": "activity at 1 µM", "setting": "[4]; Antagonist, 1 uM", "result": 5.3, "unit": "%"}, {"measurement": "activity at 10 µM", "setting": "[5]; FFAR1, Antagonist mode, 10 uM", "result": -13.8, "unit": "%"}, {"measurement": "activity at 1 µM", "setting": "[5]; FFAR1, Antagonist, 1 uM", "result": -7.9, "unit": "%"}, {"measurement": "activity at 10 µM", "setting": "[6]; EDG7, Antagonist mode, 10 uM", "result": 17.9, "unit": "%"}, {"measurement": "activity at 1 µM", "setting": "[6]; EDG7, Antagonist, 1 uM", "result": 19.5, "unit": "%"}, {"measurement": "activity at 10 µM", "setting": "[7]; DRD1, Antagonist mode, 10 uM", "result": 7.8, "unit": "%"}, {"measurement": "activity at 1 µM", "setting": "[7]; DRD1, Antagonist, 1 uM", "result": 6, "unit": "%"}, {"measurement": "activity at 1 µM", "setting": "[8]; 1 uM", "result": -0.8, "unit": "%"}, {"measurement": "activity at 10 µM", "setting": "[8]; 10 uM", "result": -1.2, "unit": "%"}, {"measurement": "activity at 10 µM", "setting": "[9]; OXER1, Antagonist mode, 10 uM", "result": 7.6, "unit": "%"}, {"measurement": "activity at 1 µM", "setting": "[9]; OXER1, Antagonist, 1 uM", "result": 2.9, "unit": "%"}, {"measurement": "activity at 10 µM", "setting": "[10]; SSTR3, Antagonist mode, 10 uM", "result": 8, "unit": "%"}, {"measurement": "activity at 1 µM", "setting": "[10]; SSTR3, Antagonist, 1 uM", "result": 13.2, "unit": "%"}, {"measurement": "activity at 1 µM", "setting": "[11]; 1 uM", "result": 2.5, "unit": "%"}, {"measurement": "activity at 10 µM", "setting": "[11]; 10 uM", "result": 0.3, "unit": "%"}, {"measurement": "activity at 10 µM", "setting": "[12]; P2RY1, Antagonist mode, 10 uM", "result": 14.9, "unit": "%"}, {"measurement": "activity at 1 µM", "setting": "[12]; P2RY1, Antagonist, 1 uM", "result": 14.5, "unit": "%"}, {"measurement": "activity at 10 µM", "setting": "[13]; Antagonist mode, 10 uM", "result": 9.1, "unit": "%"}, {"measurement": "activity at 1 µM", "setting": "[13]; Antagonist, 1 uM", "result": 25.8, "unit": "%"}, {"measurement": "activity at 10 µM", "setting": "[14]; OPRM1, OPRM1, Antagonist mode, 10 uM", "result": -18, "unit": "%"}, {"measurement": "activity at 1 µM", "setting": "[14]; OPRM1, OPRM1, Antagonist, 1 uM", "result": -8, "unit": "%"}, {"measurement": "activity at 10 µM", "setting": "[15]; PTHR1, Antagonist mode, 10 uM", "result": -8.3, "unit": "%"}, {"measurement": "activity at 1 µM", "setting": "[15]; PTHR1, Antagonist, 1 uM", "result": 2.2, "unit": "%"}, {"measurement": "activity at 1 µM", "setting": "[16]; 1 uM", "result": 13.6, "unit": "%"}, {"measurement": "activity at 10 µM", "setting": "[16]; 10 uM", "result": 12.5, "unit": "%"}, {"measurement": "activity at 10 µM", "setting": "[17]; CRHR2, Antagonist mode, 10 uM", "result": -0.3, "unit": "%"}, {"measurement": "activity at 1 µM", "setting": "[17]; CRHR2, Antagonist, 1 uM", "result": -2, "unit": "%"}, {"measurement": "activity at 10 µM", "setting": "[18]; PROKR1, Antagonist mode, 10 uM", "result": 3.3, "unit": "%"}, {"measurement": "% Activity", "setting": "[18]; PROKR1, Antagonist", "result": 8.7, "unit": "%"}, {"measurement": "activity at 10 µM", "setting": "[19]; NTSR1, Antagonist mode, 10 uM", "result": -1.7, "unit": "%"}, {"measurement": "activity at 1 µM", "setting": "[19]; NTSR1, Antagonist, 1 uM", "result": -0.7, "unit": "%"}, {"measurement": "activity at 1 µM", "setting": "[20]; 1 uM", "result": 18.1, "unit": "%"}, {"measurement": "activity at 10 µM", "setting": "[20]; 10 uM", "result": 20.4, "unit": "%"}, {"measurement": "activity at 10 µM", "setting": "[21]; MCHR2, Antagonist mode, 10 uM", "result": -4.5, "unit": "%"}, {"measurement": "activity at 1 µM", "setting": "[21]; MCHR2, Antagonist, 1 uM", "result": 2, "unit": "%"}, {"measurement": "activity at 10 µM", "setting": "[22]; Antagonist mode, 10 uM", "result": -6.7, "unit": "%"}, {"measurement": "activity at 1 µM", "setting": "[22]; Antagonist, 1 uM", "result": 2, "unit": "%"}, {"measurement": "activity at 10 µM", "setting": "[23]; PROKR2, Antagonist mode, 10 uM", "result": 6.8, "unit": "%"}, {"measurement": "activity at 1 µM", "setting": "[23]; PROKR2, Antagonist, 1 uM", "result": 2, "unit": "%"}]}]}
